From the supplement of paper PMC10307832

Assays:
Experiment in all cases: relative viability (nuclei count vs DMSO), 5 days (fraction); higher = more cells survive
NCI-H1792 = details: first compound 0.5 µM
Procedure, shortened: (§1)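 Relative viability is defined as nuclei in treated wells over nuclei in vehicle wells. Duplicate plates were run and medians reported. Lung cancer cell lines in 1536-well plates were dosed by pin tool one day after seeding, with one drug or with a fixed anchor-drug dose plus five library-drug doses (not always all listed) in √10 steps, and nuclei were counted after 5 days.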

NCI-H1793 = test system: NCI-H1793
Procedure, shortened: as §1

NCI-H1944 = test system: NCI-H1944
Procedure, shortened: as §1

NCI-H2087 = test system: NCI-H2087
Procedure, shortened: as §1

NCI-H2228 = test system: NCI-H2228
Procedure, shortened: as §1

NCI-H2405 = test system: NCI-H2405
Procedure, shortened: as §1

NCI-H3122 = test system: NCI-H3122
Procedure, shortened: as §1

NCI-H322M = test system: NCI-H322M
Procedure, shortened: as §1

NCI-H647 = test system: NCI-H647
Procedure, shortened: as §1

NCI-H727 = test system: NCI-H727
Procedure, shortened: as §1

RERF-LC-KJ = test system: RERF-LC-KJ
Procedure, shortened: as §1

SK-LU-1 = test system: SK-LU-1
Procedure, shortened: as §1

For COc1cc2nccc(Oc3ccc(NC(=O)Nc4cc(C)on4)c(Cl)c3)c2cc1OC [Tivozanib] + CC(=O)c1c(C)c2cnc(Nc3ccc(N4CCNCC4)cn3)nc2n(C2CCCC2)c1=O [Palbociclib] (partner 0.5 µM), the relative viability (NCI-H1792) was 0.747, the relative viability (NCI-H1793; first compound 0.005 µM) was 0.309 and the relative viability (NCI-H1793; first compound 0.01581 µM) was 0.343. It also gave a relative viability (NCI-H1793; first compound 0.05 µM) of 0.354, a relative viability (NCI-H1793; first compound 0.5 µM) of 0.422 and a relative viability (NCI-H1944; first compound 0.005 µM) of 0.303. It also gave a relative viability (NCI-H1944; first compound 0.01581 µM) of 0.365, a relative viability (NCI-H1944; first compound 0.05 µM) of 0.344 and a relative viability (NCI-H1944; first compound 0.1581 µM) of 0.296. For the same compound, the relative viability (NCI-H1944; first compound 0.5 µM) was 0.324, the relative viability (NCI-H2087; first compound 0.005 µM) was 0.271 and the relative viability (NCI-H2087; first compound 0.01581 µM) was 0.288. The relative viability (NCI-H2087; first compound 0.05 µM) was 0.259, the relative viability (NCI-H2087; first compound 0.1581 µM) was 0.231 and the relative viability (NCI-H2087; first compound 0.5 µM) was 0.231. For the same compound, the relative viability (NCI-H2228; first compound 0.005 µM) was 0.688, the relative viability (NCI-H2228; first compound 0.01581 µM) was 0.68 and the relative viability (NCI-H2228; first compound 0.05 µM) was 0.883. The relative viability (NCI-H2228; first compound 0.1581 µM) was 0.321, the relative viability (NCI-H2228; first compound 0.5 µM) was 0.643 and the relative viability (NCI-H2405; first compound 0.005 µM) was 0.534. It also gave a relative viability (NCI-H2405; first compound 0.01581 µM) of 0.55, a relative viability (NCI-H2405; first compound 0.05 µM) of 0.528 and a relative viability (NCI-H2405; first compound 0.1581 µM) of 0.527. The relative viability (NCI-H2405; first compound 0.5 µM) was 0.466, the relative viability (NCI-H3122; first compound 0.005 µM) was 0.164 and the relative viability (NCI-H3122; first compound 0.01581 µM) was 0.207. For the same compound, the relative viability (NCI-H3122; first compound 0.05 µM) was 0.187, the relative viability (NCI-H3122; first compound 0.1581 µM) was 0.212 and the relative viability (NCI-H3122; first compound 0.5 µM) was 0.184. The relative viability (NCI-H322M; first compound 0.005 µM) was 0.467, the relative viability (NCI-H322M; first compound 0.01581 µM) was 0.478 and the relative viability (NCI-H322M; first compound 0.05 µM) was 0.522. For the same compound, the relative viability (NCI-H322M; first compound 0.1581 µM) was 0.538, the relative viability (NCI-H322M; first compound 0.5 µM) was 0.513 and the relative viability (NCI-H647; first compound 0.005 µM) was 0.396. It also gave a relative viability (NCI-H647; first compound 0.01581 µM) of 0.391, a relative viability (NCI-H647; first compound 0.05 µM) of 0.3 and a relative viability (NCI-H647; first compound 0.1581 µM) of 0.32. It also gave a relative viability (NCI-H647; first compound 0.5 µM) of 0.35, a relative viability (NCI-H727; first compound 0.005 µM) of 0.659 and a relative viability (NCI-H727; first compound 0.01581 µM) of 0.659. The relative viability (NCI-H727; first compound 0.05 µM) was 0.574, the relative viability (NCI-H727; first compound 0.1581 µM) was 0.637 and the relative viability (NCI-H727; first compound 0.5 µM) was 0.7. The relative viability (RERF-LC-KJ; first compound 0.005 µM) was 1.01, the relative viability (RERF-LC-KJ; first compound 0.01581 µM) was 1.05 and the relative viability (RERF-LC-KJ; first compound 0.05 µM) was 1.11. It also gave a relative viability (RERF-LC-KJ; first compound 0.1581 µM) of 1.08, a relative viability (RERF-LC-KJ; first compound 0.5 µM) of 1.04 and a relative viability (SK-LU-1; first compound 0.005 µM) of 0.372. For the same compound, the relative viability (SK-LU-1; first compound 0.01581 µM) was 0.396, the relative viability (SK-LU-1; first compound 0.05 µM) was 0.386 and the relative viability (SK-LU-1; first compound 0.1581 µM) was 0.367. The relative viability (SK-LU-1; first compound 0.5 µM) was 0.37.
